Tests used:
Test in all cases: Bliss excess, mean over the matrix (fraction); higher = more synergy
[1] = tested on: BHT-101 (Thyroid Gland Carcinoma)
Procedure, shortened: (§1)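 Bliss excess equals the observed combination effect minus the expected value EA + EB − EA·EB, where EA and EB are the effects of each agent alone. Combination Emax is the second-highest inhibition within the matrix. Inhibition was scaled from CellTiter-Glo 2.0 luminescence, with 0 set by vehicle wells and 1 by blank wells, after 72 hours of two-drug dosing of cells plated in 1536-well plates.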

[2] = tested on: NCI-H596 (Other Solid Carcinomas)
Procedure, shortened: as §1

[3] = tested on: SK-CO-1 (Colorectal Carcinoma)
Procedure, shortened: as §1

[4] = tested on: NB1 (Neuroblastoma)
Procedure, shortened: as §1

[5] = tested on: CL-11 (Colorectal Carcinoma)
Procedure, shortened: as §1

[6] = tested on: GAK (Melanoma)
Procedure, shortened: as §1

[7] = tested on: NAMALWA (Burkitt's Lymphoma)
Procedure, shortened: as §1

[8] = tested on: IA-LM (Non-Small Cell Lung Carcinoma)
Procedure, shortened: as §1

[9] = tested on: WM35 (Melanoma)
Procedure, shortened: as §1

[10] = tested on: Raji (Burkitt's Lymphoma)
Procedure, shortened: as §1

[11] = tested on: SNU-C2B (Colorectal Carcinoma)
Procedure, shortened: as §1

[12] = tested on: SK-N-SH (Neuroblastoma)
Procedure, shortened: as §1

[13] = tested on: P30-OHK (B-Lymphoblastic Leukemia)
Procedure, shortened: as §1

[14] = tested on: NCI-H1963 (Small Cell Lung Carcinoma)
Procedure, shortened: as §1

[15] = tested on: KP-4 (Pancreatic Carcinoma)
Procedure, shortened: as §1

[16] = tested on: OAW-28 (Ovarian Carcinoma)
Procedure, shortened: as §1

[17] = tested on: AM-38 (Glioblastoma)
Procedure, shortened: as §1

[18] = tested on: SKG-IIIa (Cervical Carcinoma)
Procedure, shortened: as §1

[19] = tested on: SCC-4 (Oral Cavity Carcinoma)
Procedure, shortened: as §1

Compound	Bliss excess [1]	Bliss excess [2]	Bliss excess [3]	Bliss excess [4]	Bliss excess [5]	Bliss excess [6]	Bliss excess [7]	Bliss excess [8]	Bliss excess [9]	Bliss excess [10]	Bliss excess [11]	Bliss excess [12]	Bliss excess [13]	Bliss excess [14]	Bliss excess [15]	Bliss excess [16]	Bliss excess [17]	Bliss excess [18]	Bliss excess [19]
COc1nnc2ccc(N3CCC(c4ccc(OCCN5CCN(C)C(=O)[C@H]5C)cc4)CC3)nn12 [AZD5153] + CCN(CCO)CCCOc1ccc2c(Nc3cc(CC(=O)Nc4cccc(F)c4)[nH]n3)ncnc2c1 [AZD2811] (first compound max 1 µM, 7x7, partner max 1 µM)	-0.0257	-0.0612	-0.0746	-0.0071	-0.0529	-0.0273	-0.0493	-0.103	-0.016	0.0314	-0.0223	-0.0658	-0.0428	-0.0585	-0.0849	-0.0115	0.039	-0.0193	-0.109
COc1nnc2ccc(N3CCC(c4ccc(OCCN5CCN(C)C(=O)[C@H]5C)cc4)CC3)nn12 [AZD5153] + Cn1cnc2c(F)c(Nc3ccc(Br)cc3Cl)c(C(=O)NOCCO)cc21 [Selumetinib] (first compound max 1 µM, 7x7, partner max 10 µM)	-0.0593	-0.0344	-0.0134	-0.0454	0.0425	-0.0532	-0.0375	0.0168	0.0702	-0.0445	0.019	-0.0142	-0.0004	-0.0176	0.0157	0.0279	-0.0064	0.0128	-0.0332
CC(=O)c1c(C)c2cnc(Nc3ccc(N4CCNCC4)cn3)nc2n(C2CCCC2)c1=O [Palbociclib] + Cc1c2c(nn1C)CSCc1cc(n(C)n1)CSc1cc(c3ccccc3c1)OCCCc1c(C(=O)O)n(C)c3c-2c(Cl)ccc13 [AZD5991] (first compound max 10 µM, 7x7, partner max 1 µM)	-0.0105	-0.13	-0.035	-0.061	0.0079	-0.0234	-0.0139	-0.161	-0.0198	-0.0109	-0.0477	-0.0257	0.0418	-0.0047	-0.0249	0.0058	-0.0448	-0.0489	-0.0394
NC1(C(=O)N[C@@H](CCO)c2ccc(Cl)cc2)CCN(c2ncnc3[nH]ccc23)CC1 [Capivasertib] + CC(C)n1c(=O)n(C)c2cnc3cc(F)c(-c4ccc(OCCCN5CCCCC5)nc4)cc3c21 [AZD1390] (first compound max 10 µM, 7x7, partner max 0.3 µM)	-0.0197	-0.143	-0.0173	-0.0688	-0.0287	-0.0397	0.0005	-0.0371	-0.0773	-0.0461	-0.0775	-0.0626	-0.0289	-0.0615	-0.0546	-0.0674	-0.064	-0.104	-0.045
COc1nnc2ccc(N3CCC(c4ccc(OCCN5CCN(C)C(=O)[C@H]5C)cc4)CC3)nn12 [AZD5153] + C=CCn1c(=O)c2cnc(Nc3ccc(N4CCN(C)CC4)cc3)nc2n1-c1cccc(C(C)(C)O)n1 [AZD1775] (first compound max 1 µM, partner max 1 µM)	-0.0885	-0.131	-0.0741	-0.0461	-0.0376	-0.158	-0.0633	-0.0554	-0.0242	-0.105	-0.035	-0.0602	0.0298	-0.0427	-0.0859	-0.0382	-0.0594	-0.0221	-0.0421
C[C@@H](c1ccc2nccn2c1)n1nnc2ncc(-c3cnn(C)c3)nc21 [Savolitinib] + CN(CC[C@H](CSC1=CC=CC=C1)NC2=C(C=C(C=C2)S(=O)(=O)NC(=O)C3=CC=C(C=C3)N4CCC(CC4)[C@H](C5=CC=CC=C5C6=CC=C(C=C6)Cl)O)S(=O)(=O)C(F)(F)F)CCO [AZD4320] (first compound max 1 µM, 7x7, partner max 1 µM)	-0.0327	-0.018	–	-0.0318	-0.0216	–	–	–	-0.051	-0.0168	-0.101	–	-0.0183	0.0022	–	-0.006	-0.0474	–	–
COc1nnc2ccc(N3CCC(c4ccc(OCCN5CCN(C)C(=O)[C@H]5C)cc4)CC3)nn12 [AZD5153] + CC1(C)CCC(CN2CCN(c3ccc(C(=O)NS(=O)(=O)c4ccc(NCC5CCOCC5)c([N+](=O)[O-])c4)c(Oc4cnc5[nH]ccc5c4)c3)CC2)=C(c2ccc(Cl)cc2)C1 [Venetoclax] (first compound max 1 µM, 7x7, partner max 1 µM)	-0.0616	-0.0701	-0.0312	-0.0863	-0.0302	-0.0172	-0.0558	-0.0639	-0.0097	-0.0247	-0.0598	0.0011	0.102	0.0782	-0.0465	-0.0949	-0.135	-0.068	-0.0765
Cn1cnc2c(F)c(Nc3ccc(Br)cc3Cl)c(C(=O)NOCCO)cc21 [Selumetinib] + C=CCn1c(=O)c2cnc(Nc3ccc(N4CCN(C)CC4)cc3)nc2n1-c1cccc(C(C)(C)O)n1 [AZD1775] (first compound max 10 µM, partner max 1 µM)	-0.0417	-0.0821	-0.0579	-0.0731	0.0024	-0.008	-0.0104	-0.0017	0.0038	-0.041	-0.0667	-0.11	-0.0789	-0.0834	-0.0377	-0.0604	-0.0541	-0.0733	-0.0376
C[C@@H](c1ccc2nccn2c1)n1nnc2ncc(-c3cnn(C)c3)nc21 [Savolitinib] + Cc1c2c(nn1C)CSCc1cc(n(C)n1)CSc1cc(c3ccccc3c1)OCCCc1c(C(=O)O)n(C)c3c-2c(Cl)ccc13 [AZD5991] (first compound max 1 µM, 7x7, partner max 1 µM)	-0.0307	-0.0852	-0.037	-0.0355	-0.0402	0.0201	-0.05	0.0086	-0.0503	-0.0383	-0.0554	-0.0501	0.0046	-0.0134	-0.0204	-0.0129	-0.0194	-0.0554	-0.0295
CC(=O)c1c(C)c2cnc(Nc3ccc(N4CCNCC4)cn3)nc2n(C2CCCC2)c1=O [Palbociclib] + CN(CC[C@H](CSC1=CC=CC=C1)NC2=C(C=C(C=C2)S(=O)(=O)NC(=O)C3=CC=C(C=C3)N4CCC(CC4)[C@H](C5=CC=CC=C5C6=CC=C(C=C6)Cl)O)S(=O)(=O)C(F)(F)F)CCO [AZD4320] (first compound max 10 µM, 7x7, partner max 1 µM)	0.0064	-0.0578	–	-0.0677	0.0021	–	–	–	-0.114	-0.0122	-0.0867	–	0.0564	0.0164	–	-0.004	-0.0234	–	–
C=CCn1c(=O)c2cnc(Nc3ccc(N4CCN(C)CC4)cc3)nc2n1-c1cccc(C(C)(C)O)n1 [AZD1775] + C1CN(CCC1(C(=O)N[C@@H](CCO)C2=CC=C(C=C2)Cl)N)C3=NC=NC4=C3C=CN4 [Capivasertib] (first compound max 3 µM, partner max 3 µM)	0.0304	-0.0987	-0.0603	-0.0592	-0.0499	-0.0395	0.0603	-0.0348	–	0.0011	-0.0573	-0.0626	0.0697	–	-0.0806	0.0019	-0.0247	-0.0139	-0.0273
COc1nnc2ccc(N3CCC(c4ccc(OCCN5CCN(C)C(=O)[C@H]5C)cc4)CC3)nn12 [AZD5153] + CN(CC[C@H](CSC1=CC=CC=C1)NC2=C(C=C(C=C2)S(=O)(=O)NC(=O)C3=CC=C(C=C3)N4CCC(CC4)[C@H](C5=CC=CC=C5C6=CC=C(C=C6)Cl)O)S(=O)(=O)C(F)(F)F)CCO [AZD4320] (first compound max 1 µM, 7x7, partner max 1 µM)	0.0367	0.0028	–	0.0126	0.0136	–	–	–	0.0983	0.0146	0.0215	–	-0.0062	0.0696	–	0.0297	0.103	–	–
CN(C)CCCOc1ccc(-c2ccc3ncc4c(c3c2)n(C2CCOCC2)c(=O)n4C)cn1 [AZD0156] + O=C(c1cc(Cc2n[nH]c(=O)c3ccccc23)ccc1F)N1CCN(C(=O)C2CC2)CC1 [Olaparib] (first compound max 3 µM, partner max 3 µM)	0.0766	0.0282	-0.0173	-0.0721	0.0647	0.0131	0.117	0.0017	-0.0272	0.156	0.0054	-0.0043	0.262	–	0.0711	0.0871	0.167	-0.0324	0.0057

Source: the supplement of paper PMC11061612
